Test results as given in ChEMBL document CHEMBL1145674, “Isolation and identification of "diazepam-like" compounds from bovine urine” (J Nat Prod, 1983).

Organism: Rattus norvegicus
Assay: Increase in [3H]diazepam binding to benzodiazepine receptor in rat cerebral cortex membrane at 0.5 mM relative to control
Format: cell membranes

| SMILES | Activity [%] |
| --- | --- |
| Clc1ccc2[nH]c3ccccc3c2c1 | 143 |

Organism: Rattus norvegicus
Assay: Increase in [3H]diazepam binding to benzodiazepine receptor in rat cerebral cortex membrane at 1 mM relative to control
Format: cell membranes

| SMILES | Activity [%] |
| --- | --- |
| Clc1ccc2[nH]c3ccccc3c2c1 | 172 |

Test system: not listed separately
Assay: Displacement of [3H]diazepam from benzodiazepine receptor in rat cerebral cortex membrane
Format: cell membranes

| SMILES | IC50 [µM] |
| --- | --- |
| Oc1cccc(C2COc3cc(O)ccc3C2)c1 (racemic) | 45 |
| O=c1[nH]cnc2nc[nH]c12 [HYPOXANTHINE] | 700 |
| COc1ccc(-c2coc3cc(O)ccc3c2=O)cc1 [FORMONONETIN] | 700 |
| CN1C(=O)CN=C(c2ccccc2)c2cc(Cl)ccc21 [DIAZEPAM] | 0.005 |
| COc1ccc2c(=O)c(-c3ccc(O)cc3)coc2c1 [ISOFORMONENTIN] | 1100 |
| COc1ccc(C2COc3cc(O)ccc3C2)cc1 (racemic) | 1500 |
| O=c1c(-c2cccc(O)c2)coc2cc(O)ccc12 | 140 |
| NC(=O)c1cccnc1 [NIACINAMIDE] | 3900 |
| O=c1[nH]cnc2c1ncn2[C@@H]1O[C@H](CO)[C@@H](O)[C@H]1O [INOSINE] | 900 |
| Oc1ccc([C@H]2COc3cc(O)ccc3C2)cc1 [AUS-131] | 80 |
| COc1ccc2c(c1)OCC(c1ccc(O)cc1)C2 (racemic) | 1300 |
